Data from patent US11311525B2, “Use of alpha 7 nicotinic acetylcholine receptor agonists” (Novartis AG, priority 2013, dated 2022).

Tests used:
Cynomolgus monkey = experiment: Signs for emergence from ketamine/sevoflurane anesthesia in nonhuman primate (PET experiment); type: in vivo
Experimental: Said experiment was performed on the α7 nAChR in the non-human primate (NHP) brain.
An animal (Cynomolgus monkey, male, 5.8 kg) was anesthesized for the entire duration of the PET experiment, i.e. for approximately 7.5 hours. Due to the nature of these experiments, it is crucial that anesthesia is maintained.
General anesthesia was induced by i.m. injection of ketamine hydrochloride (10 mg/kg, Ketaminol, Intervet AB). The animal was intubated and general anesthesia was maintained by inhalational administration of sevoflurane (1.5-8%, Abbott Scandinavia AB). Body temperature was maintained by Bair Hugger Model 505 (Arizant Healthcare Inc., Eden Prairie, Minn., USA). ECG, pulse, blood pressure, respiration rate, oxygen saturation and tidal CO2 level were monitored continuously during the experiment. Ventilation of the animal (breathing frequency and volume) was controlled by machine during the general anesthesia. The animal underwent two consecutive PET scans. The PET ligand was administered i.v. at doses too low to have a pharmacodynamic effect (i.e. total dose of 0.16 and 0.25 μg). Before the start of the second PET scan, 10 mg/kg of compound A-1 was administered to the animal using an oral gavage tube.

brain tMHA levels = experiment: Brain tele-methylhistamine (tMHA) levels by LC-MS; type: in vivo, mice; conditions: oral, 30 minutes after administration
Experimental: Histamine (HA) is released all over the brain by tuberomammillary nucleus neurons. […] HA is metabolized by histamine-N-methyltransferase to tele-methylhistamine (tMHA) in some tissues, including brain.
Mice (n=8) were treated during the first hour of the lights-on period and sacrificed 30 min later. Brain tissue was collected and subjected to LC-MS analysis (Croyal et al. Analytical Biochemistry, 2011, 409:28-36) to determine t-MHA levels.

mice = experiment: EEG assessment of sleep behavior and vigilance stage; type: in vivo; conditions: for Active wake (β and γ frequencies), mean difference drug-vehicle / NREM (δ frequency), mean difference drug-vehicle / Quiet wake (α frequency), mean difference drug-vehicle / REM (θ frequency), mean difference drug-vehicle: 30 mg/kg oral
Experimental: Animals have temporal skull EEG electrodes implanted which are connected to transmitters. Animals were group-housed (2-4) per cage at a constant temperature of 22±1° C., on a 12:12 light-dark schedule. The EEG is recorded via a receiver and stored on a PC for further analysis. EEG is used to assess and to quantify sleep behavior and vigilance stage.
Animals were given a 1-day period of acclimatization in the recording cages with recording cables connected. On the 1st day of the experiment, EEG recordings were made continuously during a 22-hours period beginning at 11 A.M., 15 min after vehicle administration. On the second day of the experiment, EEG recordings were carried out in the same way, but 15 minutes after drug administration. In this way, each animal served as its own control. 10 animals were recorded from simultaneously in each experiment. Automatic evaluation of the nycthemeral cycle (REM sleep, classical sleep, wakefulness and an awake non-vigilant state termed “drowsiness”) was performed as described (Vigouret et al., 1978 Pharmacology 16 Suppl 1:156-73). In the present context, “quiet wake” and “active wake”, describe conscious animals in a resting and an active state, respectively, while “REM” and “NREM” represent sleep states.
FIG. 3 depicts the effects of 30 mg/kg compound B-1, orally administered 6 h after lights on (9:00) in mice (n=10) on quiet wake (α frequency, 9.5-12.5 Hz), active wake (β frequency, 12.5-30.5 Hz; and γ frequency, >30.5 Hz), REM sleep (θ frequency, 4.5-9.5 Hz) and NREM sleep (δ frequency, <4.5 Hz). Assessment period shown is 3 hours.

orexin-deficient mice = experiment: Orexin-deficiency model: number of narcoleptic episodes (behavioral arrests); type: in vivo
Source text: Male transgenic mice with a knockout of the orexin peptide gene are used. Orexin-deficient mice express a phenotype with cataplexy events (observed as ‘behavioral arrests’) and a disrupted sleep pattern including fragmented sleep and sleepiness in their active period.
The animals are observed and videotaped via infrared cameras during the first hours of the lights-off period which is the active phase of nocturnal rodents like mice. At this time, orexin-deficient mice show the most ‘behavioral arrests’. The number of these events can be furthermore increased by presenting a new environment. For this purpose, new saw dust, a running wheel, marbles and tunnels are placed in the test environment. The number of ‘behavioral arrests’ are offline counted by the experimenter for each hour of recording. Behavioral arrests were defined by phases of total inactivity outside the next box, which last longer than 10 second, preceded and followed by robust locomotor activity (see also Scammell et al., 2009, Sleep 32(1): 111-116). Some of the animals have temporal skull EEG electrodes implanted which are connected to transmitters. The EEG is recorded via a receiver and stored on a PC for further analysis. EEG is used to assess and to quantify sleep behavior and vigilance stage.
A cross-over design is used because of the high inter- and intra-individual variability of the behaviors to be observed. Furthermore, to avoid habituation to the test environment, the animals are only tested once per week in the test environment. During the remaining days, the animals are in their homecage.
For each experimental session, 3-4 mice are put into the test environment 3 hours before lights-off. The first experimental session (week 1) is used to get a baseline (without treatment). The second and third sessions (weeks 2+3) are used for treatment (vehicle & compound, cross-over design, administration 5 minutes before lights-off). The fourth and last experimental session is again without treatment to evaluate a post-treatment baseline.

[1] = cited from earlier work
[2] = 30 mg/kg oral 6 h after lights on, 3 hours assessment

For `C[C@H](OC(=O)N[C@@H]1CN2CCC1CC2)c1ccccc1F` [A-1, (S)-(1-aza-bicyclo[2.2.2]oct-3-yl)-carbamic acid (S)-1-(2-fluoro-phenyl)-ethyl ester], the “change in breathing behavior (sign for emergence from general anesthesia)” value (Cynomolgus monkey; 10 mg/kg oral gavage, fifteen minutes after administration, sevoflurane 2.9%) was “shallow breathing was observed”, the “doses of sevoflurane necessary to maintain anesthesia after the compound” value (Cynomolgus monkey; rest of experiment (about two hours) after 10 mg/kg oral, 2.6-2.9% before the compound) was 3.0-3.7% and the “brain tMHA levels” value (brain tMHA levels; 10 mg/kg dose) was “significant elevation”.

With `Cc1ccc(-c2ccc(O[C@H]3CN4CCC3CC4)cn2)cc1` [B-1, (R)-3-(6-p-tolyl-pyridin-3-yloxy)-1-aza-bicyclo[2.2.2]octane] the “effect on NREM sleep” value (mice; [2]) was “decline of NREM sleep”, the “effect on time spent in quiet wake” value (mice; [2]) was “increases the time spent in quiet wake” and the “Active wake (β and γ frequencies), mean difference drug-vehicle” value (“Active wake … mean difference drug-vehicle” below) (mice; time point 9:30) was 0.9 min. The “NREM (δ frequency), mean difference drug-vehicle” value (mice; time point 9:30) was -12.4 min, the “Quiet wake (α frequency), mean difference drug-vehicle” value (mice; time point 9:30) was 14.3 min and the “REM (θ frequency), mean difference drug-vehicle” value (mice; time point 9:30) was -2.2 min. For the same compound, the “Active wake … mean difference drug-vehicle” value (mice; time point 10:30) was 3.6 min, the “NREM (δ frequency), mean difference drug-vehicle” value (mice; time point 10:30) was -7.1 min and the “Quiet wake (α frequency), mean difference drug-vehicle” value (mice; time point 10:30) was 6.1 min. The “REM (θ frequency), mean difference drug-vehicle” value (mice; time point 10:30) was -2.1 min, the “Active wake … mean difference drug-vehicle” value (mice; time point 11:30) was 0.1 min and the “NREM (δ frequency), mean difference drug-vehicle” value (mice; time point 11:30) was 2.1 min. The “Quiet wake (α frequency), mean difference drug-vehicle” value (mice; time point 11:30) was -1.8 min, the “REM (θ frequency), mean difference drug-vehicle” value (mice; time point 11:30) was -0.9 min and the “Active wake … mean difference drug-vehicle” value (mice; time point 12:30) was 0.3 min. For the same compound, the “NREM (δ frequency), mean difference drug-vehicle” value (mice; time point 12:30) was -0.1 min, the “Quiet wake (α frequency), mean difference drug-vehicle” value (mice; time point 12:30) was -0.9 min and the “REM (θ frequency), mean difference drug-vehicle” value (mice; time point 12:30) was -0.2 min. The “decrease of number of narcoleptic episodes, first hour of the observation period” value (orexin-deficient mice; 10 mg/kg orally directly before lights-off, p<0.05 Anova) was “ca. 66%” and the “brain tMHA levels” value (brain tMHA levels; all doses tested) was “significantly elevated”.

In the case of `C[C@H]1[C@H](Oc2ccc(-c3ccc4[nH]ccc4c3)nn2)C2CCN1CC2` [B-4, (2S,3R)-3-[6-(1H-indol-5-yl)-pyridazin-3-yloxy]-2-methyl-1-aza-bicyclo[2.2.2]octane], the “decrease of number of narcoleptic episodes, whole 4 hours observation period” value (orexin-deficient mice; 3 mg/kg orally directly before lights-off, p=0.03) is reported as “ca. 25%” and the “reduction of number of narcoleptic episodes, first hour” value (orexin-deficient mice; 3 mg/kg orally directly before lights-off, p=0.04) is reported as “ca. 47%”.

For `CCCC(C)C1(CC)C(=O)NC(=S)NC1=O` (centres unmarked) [thiopentone], the “dose remaining in the body” value ([1]; at 24 hours) is listed as ≤ 30%, the “elimination by oxidative metabolism in the liver, rate” value ([1]; in vivo) is listed as 15 % per hour and the elimination half-life ([1]; in vivo) is listed as 3.4 to 22 h. For the same compound, the “initial drug effect terminated by redistribution, time” value ([1]; in vivo) was 5 to 15 min.
